How the values were obtained:
PDE4A1 = target: T1, PDE4A1 (Mus musculus, UniProt O89084); test: 5FOA growth assay (high throughput screen, ED50) in fission yeast strain expressing PDE4A1; format: cell-based; details: high throughput 5FOA growth screen; greater than 8.53 = statistically-significant inhibitor
T1 construct: targets used in the assays are full-length proteins (as opposed to simply the catalytic domain); expressed in transfected cells; host or cells: Schizosaccharomyces pombe, PDE gene integrated in place of cgs2
T1 sequence (O89084 1-610 isoform O89084-2): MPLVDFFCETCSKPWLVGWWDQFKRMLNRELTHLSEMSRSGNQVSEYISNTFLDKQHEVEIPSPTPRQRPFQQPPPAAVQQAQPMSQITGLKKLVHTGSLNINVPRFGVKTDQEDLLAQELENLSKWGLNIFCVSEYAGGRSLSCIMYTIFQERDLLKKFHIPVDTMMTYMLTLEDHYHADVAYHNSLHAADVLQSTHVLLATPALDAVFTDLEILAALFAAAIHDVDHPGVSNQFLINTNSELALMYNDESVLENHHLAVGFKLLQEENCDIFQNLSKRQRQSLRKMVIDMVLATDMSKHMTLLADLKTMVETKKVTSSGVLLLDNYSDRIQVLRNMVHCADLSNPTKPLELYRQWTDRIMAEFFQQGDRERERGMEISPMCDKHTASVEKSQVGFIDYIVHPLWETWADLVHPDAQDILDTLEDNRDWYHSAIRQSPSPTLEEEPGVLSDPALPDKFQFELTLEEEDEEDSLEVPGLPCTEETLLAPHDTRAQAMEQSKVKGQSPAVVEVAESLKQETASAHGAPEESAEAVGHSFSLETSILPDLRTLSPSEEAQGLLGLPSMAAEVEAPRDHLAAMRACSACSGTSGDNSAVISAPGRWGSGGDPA
Protocol: (§1) High throughput drug screens were carried out at the Broad Institute's Chemical Biology Program screening facility (Broad Institute, Cambridge, Mass.). Depending upon the strain, cultures were pregrown to exponential phase in EMM complete medium containing from 0.5 to 2.5 mM cAMP to repress fbp1-ura4 transcription. […] Starting cell concentrations ranged from 0.5×10^5 to 4×10^5 cells/ml depending on the screening strain. […] Other positive control dishes contained 5 mM cAMP in the 5FOA medium. Cultures were grown for 48 hours at 30° C., sealed in an airtight container with moist paper towels to prevent evaporation. Optical densities (OD600) of cultures were measured using a microplate reader. Bioinformatic analysis of the results to determine composite Z scores was performed as previously described^30, 31.
(§2) To determine whether the 5FOA growth phenotype could be exploited for high throughput drug screening, strains expressing PDE2A, PDE4A, PDE4B, or PDE8A were pre-grown in EMM medium containing cAMP and then transferred to 5FOA medium in 384 well microtiter plates in the presence or absence of cAMP. OD600 measurements were taken after 48 hours incubation at 30° C.
(§3) Cells were pregrown in EMM medium [MP Biomedicals (Solon, Ohio), 3% glucose, filter-sterilized to avoid carmelization, which would introduce variability into the optical density of the medium] containing from 0 mM to 2.5 mM cAMP (or either 0.5 mM or 1.0 mM cGMP). This was to repress expression of the fbp1-ura4 reporter prior to exposure of cells to 5FOA medium. Cells were grown at 30° C. to exponential phase (approximately 10^7 cells/ml). […] Starting cell concentrations ranged from 0.5×10^5 to 4×10^5 cells/ml depending on the screening strain. […] Other positive control dishes contained 5 mM cAMP in the 5FOA medium for PDEs that lack appropriate control compounds. Cultures were grown for 48 hours at 30° C., sealed in an airtight container with moist paper towels to prevent evaporation. Optical densities (OD600) of cultures were measured using a microplate reader. Bioinformatic analysis of the results to determine composite Z scores was performed as previously described (1, 3).

PDE4B3 = target: T2, PDE4B3 (Mus musculus, UniProt Q8VBU5); test: 5FOA growth assay in fission yeast strain expressing PDE4B3; format: cell-based, Murine; details: for Composite Z score, PDE4B3: high throughput 5FOA growth screen
T2 construct: targets used in the assays are full-length proteins (as opposed to simply the catalytic domain); expressed in transfected cells; host or cells: Schizosaccharomyces pombe, PDE gene integrated in place of cgs2
T2 sequence (Q8VBU5 1-721): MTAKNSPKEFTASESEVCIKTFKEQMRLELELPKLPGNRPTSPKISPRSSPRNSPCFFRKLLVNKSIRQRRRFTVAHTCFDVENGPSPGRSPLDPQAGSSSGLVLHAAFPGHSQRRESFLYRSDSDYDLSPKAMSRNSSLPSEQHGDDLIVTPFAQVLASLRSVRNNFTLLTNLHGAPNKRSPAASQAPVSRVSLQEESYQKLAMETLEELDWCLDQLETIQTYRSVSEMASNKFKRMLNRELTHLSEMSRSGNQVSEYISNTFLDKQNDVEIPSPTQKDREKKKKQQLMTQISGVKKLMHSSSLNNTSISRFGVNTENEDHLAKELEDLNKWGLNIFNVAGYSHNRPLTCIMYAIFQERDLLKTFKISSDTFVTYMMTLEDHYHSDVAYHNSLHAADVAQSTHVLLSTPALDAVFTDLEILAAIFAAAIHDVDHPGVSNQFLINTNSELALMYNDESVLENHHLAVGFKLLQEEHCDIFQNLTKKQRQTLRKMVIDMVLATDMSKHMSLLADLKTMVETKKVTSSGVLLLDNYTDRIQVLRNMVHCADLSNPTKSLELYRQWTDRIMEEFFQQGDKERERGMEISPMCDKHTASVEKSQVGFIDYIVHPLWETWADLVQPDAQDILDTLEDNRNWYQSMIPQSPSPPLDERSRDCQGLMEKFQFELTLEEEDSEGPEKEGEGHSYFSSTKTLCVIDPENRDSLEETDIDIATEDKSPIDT
Protocol: as §1, §2, §3

Compound | Composite Z score, PDE4A1 (PDE4A1) | Composite Z score, PDE4B3 (PDE4B3) | 1 Assay (20 uM) 4B3 (PDE4B3; 20 uM) [ND ND ND ND]
CN(C)CCCNc1ncnc2sc3c(c12)CCCC3 [Compound 1414C02] | 1.6456 | 21.25 | –
Cc1nc(NCc2ccco2)c2c3c(sc2n1)CCC3 [Compound 1426I13] | −0.033 | −0.071 | –
O=C(O)C(Cc1ccccc1)Nc1ncnc2sc3c(c12)CCC3 (stereo not drawn) [Compound 1381O17] | −0.467 | 0.3352 | –
OCCN(CCO)c1ncnc2sc3c(c12)CCCC3 [1415 E01] | 2.2076 | 0.8257 | –
COC(=O)c1ccccc1NC(=O)c1sc2ncnc(N3CCN(c4ccccn4)CC3)c2c1C [Compound 1159K09] | 0.5937 | – | –
CC(C)N(C)c1ncnc2sc3c(c12)CCC3 [Compound 1407G21] | 12.819 | 0.0445 | –
Cc1nc(N2CC(C)OC(C)C2)c2c3c(sc2n1)CCC3 (stereo not drawn) [Compound 1421B05] | 2.1932 | 5.4669 | –
COCCCNC(=O)c1sc2ncnc(N3CCc4ccccc4C3)c2c1C [Compound 1159M19] | 5.0576 | – | –
CCOC(=O)c1sc2ncnc(N3CCc4ccccc4C3)c2c1C [Compound 1379L18] | −0.753 | 1.8207 | –
Cc1nc(N2CCN(C)CC2)c2c(C)c(C(=O)N3CCN(c4cccc(Cl)c4)CC3)sc2n1 [Compound 1158G03] | −0.078 | – | –
CCN(CC)c1ncnc2sc3c(c12)CCC(C#N)(c1ccccc1)C3 (stereo not drawn) [Compound 1380G04] | 20.429 | −0.752 | –
CCOC(=O)c1sc2nc(CC(=O)OC)nc(NCC(=O)OC)c2c1C [Compound 1379F18] | −0.126 | 3.0462 | –
N#CC1(c2ccccc2)CCc2c(sc3ncnc(N4CCCC4)c23)C1 (stereo not drawn) [Compound 1380I09] | 1.2506 | −1.076 | –
Cc1sc2ncnc(NC3CCN(Cc4ccccc4)CC3)c2c1C [Compound 1426C09] | −0.147 | −0.516 | –
Cc1c(C(=O)Nc2ccc3c(c2)OCO3)sc2ncnc(N3CCc4ccccc4C3)c12 [Compound 1159C21] | 3.9976 | – | –
COCCCNC(=O)c1sc2ncnc(N3CCN(c4ccccc4F)CC3)c2c1C [Compound 1159C19] | 2.6846 | – | –
Cc1nc(N2CCC(C)CC2)c2c(C)c(C(=O)N3CCOCC3)sc2n1 [Compound 1424A12] | 2.2036 | −2.898 | –
c1nc(N2CCCCC2)c2c3c(sc2n1)CCC3 [Compound 1421A20] | 4.6254 | 4.7765 | –
CCOC(=O)c1sc2nc(CC(=O)OC)nc(NCCN3CCOCC3)c2c1C [Compound 1158A03] | 0.3744 | – | –
CCC(CO)Nc1nc(C)nc2sc3c(c12)CCCC3 (stereo not drawn) [Compound 1426O11] | 0.4682 | 0.0693 | –

Compound | Composite Z score, PDE4A1 (PDE4A1) | Composite Z score, PDE4B3 (PDE4B3) | 1 Assay (20 uM) 4B3 (PDE4B3; 20 uM) [ND ND ND ND]
Cc1c(C(=O)NCC2CCCO2)sc2ncnc(N3CCN(c4ccccc4F)CC3)c12 (stereo not drawn) [Compound 1159M17] | 1.9801 | – | –
CCN(CC)c1ncnc2sc(C)c(C)c12 [Compound 1403J21] | 1.647 | 0.0332 | –
O=C(Nc1ncnc2sc3c(c12)CCC3)c1ccccc1 [Compound 1380I07] | 36.663 | −0.935 | –
CC(C)(C)C(=O)Nc1ncnc2sc3c(c12)CCCC3 [Compound 1379O22] | 1.5734 | −0.703 | –
Cc1nc(N2CCCN(C)CC2)c2c3c(sc2n1)CCC3 [Compound 1415C05] | 0.327 | 0.6059 | –
Cc1c(C(=O)NCc2ccco2)sc2ncnc(N3CCN(c4ccccc4)CC3)c12 [Compound 1159G19] | 7.7398 | – | –
CCN(CC)CCCNC(=O)c1sc2ncnc(N3CCN(c4ccc(OC)cc4)CC3)c2c1C [Compound 1158C03] | 2.6937 | – | –
Cc1c(C(=O)NCc2ccco2)sc2ncnc(N3CCc4ccccc4C3)c12 [Compound 1159I19] | 26.235 | – | –
CCCCNC(=O)c1sc2ncnc(N3CCc4ccccc4C3)c2c1C [Compound 1159K19] | 5.4376 | – | –
CC1CCc2c(sc3nc(SCC(N)=O)nc(NCc4ccccc4)c23)C1 (stereo not drawn) [Compound 1157L22] | 2.3434 | – | –
COCCNC(=O)c1sc2ncnc(N3CCN(c4ccccn4)CC3)c2c1C [Compound 1159M09] | 1.1811 | – | –
COc1cc(NC(=O)c2sc3nc(C)nc(N4CCCCC4C)c3c2C)cc(OC)c1OC (stereo not drawn) [Compound 1159M15] | 17.363 | – | –
CCOC(=O)c1sc2ncnc(N3CCC4(CC3)OCCO4)c2c1C [Compound 1159G15] | 5.3411 | – | –
N#Cc1sc(C(N)=O)c(-c2ccco2)c1-c1ccco1 [1449, A02] | – | – | 1.8244
Cc1c(C(=O)NCC2CCCO2)sc2ncnc(N3CCN(c4ccccc4)CC3)c12 (stereo not drawn) [1159 E19] | 1.0613 | – | –
COc1cc(NC(=O)c2sc3nc(C)nc(N4CCOCC4)c3c2C)cc(OC)c1OC [Compound 1159O09] | 0.8757 | – | –
CCOC(=O)CNC(=O)c1sc2ncnc(N3CCN(c4ccccc4F)CC3)c2c1C [Compound 1159A19] | 2.4477 | – | –
Cc1c(C(=O)NCc2ccccn2)sc2ncnc(N3CCc4ccccc4C3)c12 [Compound 1159O19] | 11.945 | – | –
Cc1c(C(=O)NCc2ccco2)sc2ncnc(N3CCN(c4ccccc4F)CC3)c12 [Compound 1159O17] | 3.616 | – | –
